Each structure is given as a SMILES string.

Data on two compounds can be found in article PMC10981997, “PEDF peptide plus hyaluronic acid stimulates cartilage regeneration in osteoarthritis via STAT3-mediated chondrogenesis” (Bone & Joint Research, 2024).

One test has as its system BM-MSCs. Kind of test: BrdU incorporation (proliferation) of BM-MSCs in expansion medium. The settings on record: pretreatment before 29-mer 10 μM, p < 0.001 vs 29-mer. The class given is cell-based, rat. From the text: Sprague-Dawley rats were anaesthetized and their femora were aseptically harvested, washed in a mixture of PBS and 1% penicillin/streptomycin for five minutes, dissected of all soft-tissue, transected at their epiphysis, and their marrow cavity rinsed repeatedly with a mixture of heparin (AGGLUTEX INJ 5,000 U/ml; working conc. 100 U/ml) and Dulbecco’s Modified Eagle Medium (DMEM; Gibco, Thermo Fisher Scientific). The harvested cells were collected, dispersed by pipetting, and centrifuged at 1,000× g for five minutes at RT. Cell pellets were resuspended with DMEM and then the cell suspension was transferred to a 15 ml centrifuge tube containing 5 ml of Percoll (1.073 g/ml; MilliporeSigma). After centrifugation at 1,500× g for 30 minutes, the mononuclear cells in the middle layer were obtained, washed three times with PBS, and suspended in expansion medium (low-glucose DMEM with 10% heat-inactivated FBS, 1% penicillin/streptomycin). […] BrdU immunostaining of BM-MSCs was performed as in Ho et al’s[14] study.
BM-MSCs were expanded for seven days in culture and then exposed to the 29-mer (10 μM) for 24 hours. Cell proliferation was detected by BrdU pulse-labelling for four hours and analyzed by BrdU immunostaining (red colour; Figure 1a).

The subject of the next test is articular cartilage (AC). Kind of test: In vivo BrdU labelling and immunostaining of chondrogenic markers in damaged AC. Set-up: species or system rat. The conditions noted are these: inhibitor 1 mM in 25 µl 5% HA intra-articular 60 min before 29-mer/HA at days 8 and 12. The procedure:
Rats were anaesthetized by an intraperitoneal injection of xylazine (10 mg/kg) and then the right knees were injected with MIA (1 mg dissolved in 25 µl of sterile saline), using a 27-gauge needle through the patellar ligament of the knees.[18],[19] The left knee joints (control) were injected with saline. To prepare the 29-mer/HA, the 29-mer was dissolved in dimethylsulfoxide (DMSO) to make a 10 mM stock solution. Equal volumes of DMSO and 29-mer (0.5 µl) were dissolved in HA. At days 8 and 12 after MIA injection, the right knees (n = 6 per group) were randomly injected by: 1) 29-mer/25 µl of 5% HA (final concentration of 29-mer at 0.2 mM); 2) DMSO vehicle/5% HA; 3) control peptide/5% HA; 4) 5% HA alone; and 5) 29-mer/25 µl of phosphate-buffered saline (PBS; final concentration of 29-mer at 0.2 mM). […]
BrdU was reconstituted in DMSO as stock (80 mM). […] Deparaffinized sections were treated with 1N HCl at RT for 1 h, and DNA synthesis was assessed by anti-BrdU antibody. […] Images were captured using a Zeiss epifluorescence microscope with a CCD camera (Zeiss, Germany), and blinded quantification was performed in triplicate by manually counting within each section. […]
For orientation: Dividing cells build labelled thymidine or BrdU into new DNA.

As to `C[C@H]1COC2=C1C(=O)C(=O)c1c2ccc2c1CCCC2(C)C` [CPT, cryptotanshinone], the “effect of inhibitor pretreatment on the 29-mer-induced BrdU+ levels” value with BM-MSCs is “significantly suppressed”. Moreover, the “effect of inhibitor on 29-mer/HA-induced BrdU-labelled chondrocytes” value in the test with articular cartilage (AC) was “blocked”.
With `CN(C)C(=O)Nc1cccc(-c2ccc(N(C)C)cc2)c1` [atglistatin, Atglistatin], the “effect of inhibitor pretreatment on the 29-mer-induced BrdU+ levels” value in the test with BM-MSCs was “significantly suppressed”. Further, the “effect of inhibitor on 29-mer/HA-induced BrdU-labelled chondrocytes” value with articular cartilage (AC) is on record as “blocked”.
